Measurements published in ChEMBL document CHEMBL1129200, “Synthesis and cytotoxic activity of phenyl-hexahydropyrrolo[3,4-c]carbazoles” (Bioorg Med Chem Lett, 1996).

Key:
[1] = system: A549; assay: Cytotoxic activity against A-549 cell lines.; assay type: functional, cell-based; details: Homo sapiens
[2] = system: P388; assay: Cytotoxic activity against P-388 cell lines.; assay type: functional, cell-based; details: Mus musculus
[3] = system: SK-MEL-28; assay: Cytotoxic activity against MEL-28 cell lines.; assay type: functional, cell-based; details: Homo sapiens
[4] = system: HT-29; assay: Cytotoxic activity against HT-29 cell lines.; assay type: functional, cell-based; details: Homo sapiens
[5] = system: UACC-62; assay: Cytotoxic activity against UACC-62 melanoma cell lines.; assay type: functional; details: Homo sapiens
[6] = system: HL-60; assay: Cytotoxic activity against HL-60(TB) leukemia cell lines.; assay type: functional; details: Homo sapiens
[7] = system: RXF 393; assay: Cytotoxic activity against […] renal cancer cell lines.; assay type: functional; details: Homo sapiens
[8] = system: SNB-19; assay: Cytotoxic activity against SNB-19 CNS tumor cell lines.; assay type: functional; details: Homo sapiens
[9] = system: K562; assay: Cytotoxic activity against K-562 leukemia cell lines.; assay type: functional; details: Homo sapiens
[10] = system: U-251; assay: Cytotoxic activity against U251 CNS tumor cell line cell lines.; assay type: functional; details: Homo sapiens
[11] = system: HOP-92; assay: Cytotoxic activity against HOP-92 non small cell lung cancer cell lines.; assay type: functional; details: Homo sapiens
[12] = system: OVCAR-4; assay: Cytotoxic activity against OVCAR-4 ovarian cancer cell lines.; assay type: functional; details: Homo sapiens
[13] = system: SNB-75; assay: Cytotoxic activity against SNB-75 CNS tumor cell line cell lines.; assay type: functional; details: Homo sapiens
[14] = system: HOP-62; assay: Cytotoxic activity against HOP-62 non small cell lung cancer cell lines.; assay type: functional; details: Homo sapiens
[15] = system: A498; assay: Cytotoxic activity against A 498 renal cancer cell lines.; assay type: functional; details: Homo sapiens
[16] = system: BT-549; assay: Cytotoxic activity against […] breast cancer cell lines.; assay type: functional; details: Homo sapiens
[17] = system: MDA-N; assay: Cytotoxic activity against MDA-N breast cancer cell lines.; assay type: functional; details: Homo sapiens
[18] = system: T47D; assay: Cytotoxic activity against T-47D breast cancer cell lines.; assay type: functional; details: Homo sapiens
[19] = system: SK-MEL-2; assay: Cytotoxic activity against SK-MEL-2 melanoma cell lines.; assay type: functional; details: Homo sapiens
[20] = system: MDA-MB-435; assay: Cytotoxic activity against MDA-MB-435 breast cancer cell lines.; assay type: functional; details: Homo sapiens

| Compound | IC50 [1] | IC50 [2] | IC50 [3] | IC50 [4] | GI50 [5] | GI50 [6] | GI50 [7] | GI50 [8] | GI50 [9] | GI50 [10] | GI50 [11] | GI50 [12] | GI50 [13] | GI50 [14] | GI50 [15] | GI50 [16] | GI50 [17] | GI50 [18] | GI50 [19] | GI50 [20] |
| --- | --- | --- | --- | --- | --- | --- | --- | --- | --- | --- | --- | --- | --- | --- | --- | --- | --- | --- | --- | --- |
| COc1cc([C@@H]2Cc3[nH]c4ccc(Br)cc4c3[C@@H]3C(=O)N(c4ccccc4)C(=O)[C@H]23)cc(OC)c1OC | > 17.8 µM | > 17.8 µM | > 17.8 µM | > 17.8 µM | – | – | – | – | – | – | – | – | – | – | – | – | – | – | – | – |
| COc1cc([C@@H]2Cc3[nH]c4ccccc4c3[C@@H]3C(=O)N(c4ccccc4)C(=O)[C@H]23)cc(OC)c1OC | 2.1 µM | 0.5 µM | 2.1 µM | 2.1 µM | 24 µM | 31.6 µM | 20.4 µM | 25.7 µM | 31.6 µM | 34.7 µM | 13.2 µM | 26.9 µM | 26.9 µM | 16.2 µM | 33.1 µM | 25.1 µM | 30.2 µM | 25.1 µM | 27.5 µM | 21.9 µM |
| COc1cc([C@@H]2Cc3[nH]c4ccc(C)cc4c3[C@@H]3C(=O)N(c4ccccc4)C(=O)[C@H]23)cc(OC)c1OC | 20.1 µM | 20.1 µM | 20.1 µM | 20.1 µM | – | – | – | – | – | – | – | – | – | – | – | – | – | – | – | – |
